The subject of this assay is PABPC1 PABC. Type of assay: binding, human. As to conditions: DMS-BM library, bait PABPC1 PABC, row aa = residue at this position; for DMS-derived PSSM value (averaged), position K7: K = wild type.
Where [1] appears, read: prey ATXN2, peptide TLNPNAKEFNPRSFSQ, N = wild type.
Setting [2] is: prey ATXN2, TLNPNAKEFNPRSF(averaged) over the two overlapping peptides, S = wild type.
The mark [3] stands for this setting: prey ATXN2, TLNPNAKEFNPRSF(averaged) over the two overlapping peptides, F = wild type.
Where [4] appears, read: prey ATXN2, peptide TLNPNAKEFNPRSFSQ, L = wild type.
The mark [5] stands for this setting: prey ATXN2, peptide KSTLNPNAKEFNPRSF, P = wild type.
[6] abbreviates: prey ATXN2, peptide KSTLNPNAKEFNPRSF, S = wild type.
The mark [7] stands for this setting: prey ATXN2, TLNPNAKEFNPRSF(averaged) over the two overlapping peptides, N = wild type.
Where [8] appears, read: prey ATXN2, TLNPNAKEFNPRSF(averaged) over the two overlapping peptides.
Where [9] appears, read: prey ATXN2, peptide KSTLNPNAKEFNPRSF, F = wild type.
[10] abbreviates: prey ATXN2, peptide KSTLNPNAKEFNPRSF, N = wild type.

Where two headings read alike, the source gives them in different places.

With TLNPNAKEFNPRSFSQ N5F (TLNPFAKEFNPRSFSQ), the “DMS-derived PSSM value, position N5” value under setting [1] amounted to 0.006389.

Turning to “TLNPNAKEFNPRSF(averaged) S13W (TLNPNAKEFNPRWF)”, the “DMS-derived PSSM value (averaged), position S13” value under setting [2] was 0.01751.

For “TLNPNAKEFNPRSFSQ N10A (TLNPNAKEFAPRSFSQ)”, the “DMS-derived PSSM value, position N10” value under setting [1] stood at 0.03895.

Take “TLNPNAKEFNPRSF(averaged) F14M (TLNPNAKEFNPRSM)”: the “DMS-derived PSSM value (averaged), position F14” value under setting [3] was 0.1425.

With TLNPNAKEFNPRSFSQ E8T (TLNPNAKTFNPRSFSQ), the “DMS-derived PSSM value, position E8” value (prey ATXN2, peptide TLNPNAKEFNPRSFSQ, E = wild type) is recorded as 0.09413.

For the substance TLNPNAKEFNPRSFSQ N5A (TLNPAAKEFNPRSFSQ), under setting [1], the “DMS-derived PSSM value, position N5” value amounted to 0.004479.

Regarding TLNPNAKEFNPRSFSQ L2P (TPNPNAKEFNPRSFSQ), the “DMS-derived PSSM value, position L2” value under setting [4] is given as 0.03756.

Take TLNPNAKEFNPRSFSQ A6W (TLNPNWKEFNPRSFSQ): the “DMS-derived PSSM value, position A6” value (prey ATXN2, peptide TLNPNAKEFNPRSFSQ, A = wild type) worked out at 0.

For the substance TLNPNAKEFNPRSFSQ F9M (TLNPNAKEMNPRSFSQ), for the setting “prey ATXN2, peptide TLNPNAKEFNPRSFSQ, F = wild type”, the “DMS-derived PSSM value, position F9” value was 0.

With “KSTLNPNAKEFNPRSF P13V (KSTLNPNAKEFNVRSF)”, the “DMS-derived PSSM value, position P13” value under setting [5] is listed as 0.767.

KSTLNPNAKEFNPRSF S2R (KRTLNPNAKEFNPRSF): the “DMS-derived PSSM value, position S2” value under setting [6] is on record as 0.0005784.

As to TLNPNAKEFNPRSFSQ L2N (TNNPNAKEFNPRSFSQ), the “DMS-derived PSSM value, position L2” value under setting [4] stood at 0.

Regarding “TLNPNAKEFNPRSF(averaged) N10K (TLNPNAKEFKPRSF)”, the “DMS-derived PSSM value (averaged), position N10” value under setting [7] turned out to be 0.01006.

As for TLNPNAKEFNPRSFSQ N5V (TLNPVAKEFNPRSFSQ), the “DMS-derived PSSM value, position N5” value under setting [1] is reported as 0.09342.

With KSTLNPNAKEFNPRSF S2M (KMTLNPNAKEFNPRSF), under setting [6], the “DMS-derived PSSM value, position S2” value amounted to 0.2211.

KSTLNPNAKEFNPRSF P6S (KSTLNSNAKEFNPRSF): the “DMS-derived PSSM value, position P6” value under setting [5] worked out at 0.01358.

Take “TLNPNAKEFNPRSF(averaged) K7D (TLNPNADEFNPRSF)”: the “DMS-derived PSSM value (averaged), position K7” value under setting [8] was 0.01005.

Turning to “TLNPNAKEFNPRSF(averaged) K7F (TLNPNAFEFNPRSF)”, the “DMS-derived PSSM value (averaged), position K7” value under setting [8] came out at 0.04105.

For the substance “TLNPNAKEFNPRSF(averaged) S13T (TLNPNAKEFNPRTF)”, under setting [2], the “DMS-derived PSSM value (averaged), position S13” value turned out to be 0.05607.

Turning to “KSTLNPNAKEFNPRSF F11S (KSTLNPNAKESNPRSF)”, the “DMS-derived PSSM value, position F11” value under setting [9] is 0.

For “TLNPNAKEFNPRSF(averaged) L2P (TPNPNAKEFNPRSF)”, under “prey ATXN2, TLNPNAKEFNPRSF(averaged) over the two overlapping peptides, L = wild type”, the “DMS-derived PSSM value (averaged), position L2” value is listed as 0.01878.

As to “TLNPNAKEFNPRSF(averaged) A6R (TLNPNRKEFNPRSF)”, the “DMS-derived PSSM value (averaged), position A6” value (prey ATXN2, TLNPNAKEFNPRSF(averaged) over the two overlapping peptides, A = wild type) is recorded as 0.

For “TLNPNAKEFNPRSF(averaged) F9G (TLNPNAKEGNPRSF)”, the “DMS-derived PSSM value (averaged), position F9” value under setting [3] was found to be 0.

For the substance TLNPNAKEFNPRSFSQ L2A (TANPNAKEFNPRSFSQ), the “DMS-derived PSSM value, position L2” value under setting [4] is 0.

With “TLNPNAKEFNPRSFSQ S15E (TLNPNAKEFNPRSFEQ)”, under “prey ATXN2, peptide TLNPNAKEFNPRSFSQ, S = wild type”, the “DMS-derived PSSM value, position S15” value is on record as 0.1009.

For “KSTLNPNAKEFNPRSF F16P (KSTLNPNAKEFNPRSP)”, under setting [9], the “DMS-derived PSSM value, position F16” value was 0.0009324.

For the substance KSTLNPNAKEFNPRSF N5L (KSTLLPNAKEFNPRSF), the “DMS-derived PSSM value, position N5” value under setting [10] worked out at 0.

KSTLNPNAKEFNPRSF N5E (KSTLEPNAKEFNPRSF): the “DMS-derived PSSM value, position N5” value under setting [10] came out at 0.

For “KSTLNPNAKEFNPRSF E10T (KSTLNPNAKTFNPRSF)”, under “prey ATXN2, peptide KSTLNPNAKEFNPRSF, E = wild type”, the “DMS-derived PSSM value, position E10” value amounted to 0.1693.

On to “TLNPNAKEFNPRSF(averaged) N5M (TLNPMAKEFNPRSF)”, for which, under setting [7], the “DMS-derived PSSM value (averaged), position N5” value was 0.3686.

Regarding “TLNPNAKEFNPRSFSQ N10R (TLNPNAKEFRPRSFSQ)”, the “DMS-derived PSSM value, position N10” value under setting [1] came out at 0.03785.

As to “KSTLNPNAKEFNPRSF R14F (KSTLNPNAKEFNPFSF)”, the “DMS-derived PSSM value, position R14” value (prey ATXN2, peptide KSTLNPNAKEFNPRSF, R = wild type) is recorded as 0.03238.

For “TLNPNAKEFNPRSF(averaged) N5G (TLNPGAKEFNPRSF)”, the “DMS-derived PSSM value (averaged), position N5” value under setting [7] was 0.006922.

For the origin of these results see publication PMC12102759 (Protein Science : A Publication of the Protein Society, 2025).
